Test results reported in patent US20220400680A1, “USE OF ACYLCYANAMIDES OR SALTS THEREOF FOR REGULATING PLANT GROWTH” (Alzchem Trostberg GmbH, priority 2019, published 2022).

Assays:
[1] = test system: Table apple, type Zabergäu-Renette (C2); experiment: Greenhouse test, cut apple branches C2 dipped in test solution, bud development stage; assay type: in vivo, Malus domestica; parameters: key to Bud development stage, apple branches C2: Stage 0: Buds unchanged; Stage 1: Buds slightly swollen, first green tips visible; Stage 2: strongly swollen, green buds; Stage 3: Buds before breaking open, leaf or flower root already visible; Stage 4: Flower buds fully developed, but still closed, white petals already visible. In the case of the grapevine, stage 4 was the unfolding of the first leaves; Stage 5: Flowers fully open or, in the case of grapevine, unfolding of the flower roots (“Gescheine”) on the fully leafed sprouts
In short: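 Cut branches held in water jars in a greenhouse at about 22° C. under natural light after dipping in aqueous test solution: 0.15 mol substance (0.075 mol for bis-cyanamides) plus 0.15 g BreakThru OE-446 per 500 g. Bud development scored on a stage scale from closed buds to fully open flowers.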

[2] = test system: Table cherry, type Burlat (C3); experiment: Greenhouse test, cut cherry branches C3 dipped in test solution, bud development stage; assay type: in vivo, Prunus avium; parameters: key to Bud development stage, cherry branches C3: Stage 0: Buds unchanged; Stage 1: Buds slightly swollen, first green tips visible; Stage 2: strongly swollen, green buds; Stage 3: Buds before breaking open, leaf or flower root already visible; Stage 4: Flower buds fully developed, but still closed, white petals already visible. In the case of the grapevine, stage 4 was the unfolding of the first leaves; Stage 5: Flowers fully open or, in the case of grapevine, unfolding of the flower roots (“Gescheine”) on the fully leafed sprouts
In short: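 Cut branches kept in water jars in a greenhouse at about 22° C. under natural light after dipping in aqueous solution of 0.15 mol test substance (0.075 mol for bis-cyanamides) plus 0.15 g BreakThru OE-446 per 500 g. Bud development scored on a stage scale from closed buds to fully open flowers.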

[3] = test system: table grapes type Red Globe; experiment: Field test E2 table grapes Spain, bud burst; parameters: species or system Vitis vinifera; conditions: in vivo
Method: Three sections of a table grape plantation in southern Spain (type Red Globe) were treated with the following spray mixtures during the dormancy phase 45 days before natural bud burst (February 5):
E2-0: 600 liters per hectare of water with an addition of 0.1% Break-Thru® OE-446 E2-1: 600 liters per hectare of the spray mixture from example D-1 E2-18: 600 liters per hectare of the spray mixture from example D-18
(§1) As a result, the grapevine sprouts were evenly wetted.
On April 3, bud burst was recorded numerically.
(§2) Budding means number of buds that have developed at least one leaf after n days, based on the total number of buds on the sprouts at time n=0 days (day of application of spray mixture).

[4] = test system: table grapes types Bordon AR and Hammar AR; experiment: Field test E3 table grapes India, bud burst; parameters: species or system Vitis vinifera; conditions: in vivo
Method: Three sections of a table grape plantation in India with types Bordon AR and Hammar AR were treated with the following spray mixtures during the dormancy phase:
E3-0: 600 liters per hectare of water with an addition of 0.1% Break-Thru® OE-446 E3-1: 600 liters per hectare of the spray mixture from example D-1 E3-18: 600 liters per hectare of the spray mixture from example D-18
as §1
After 30 and 45 days, respectively, bud burst was recorded numerically.
as §2

[5] = T1 (14 d), 0.15 mol (A-14, A-15: 0.075 mol) per 500 g solution

## CC(=O)NC#N.[Na] [Example A-1, Sodium Acetylcyanamide]
[1]; [5]
  Bud development stage, apple branches C2: 0
[1]; T2 (16 d)
  Bud development stage, apple branches C2: 0
[1]; T3 (21 d)
  Bud development stage, apple branches C2: 1
[1]; T4 (27 d)
  Bud development stage, apple branches C2: 3
[1]; T5 (36 d)
  Bud development stage, apple branches C2: 5
[1]; T6 (56 d)
  Bud development stage, apple branches C2: 5
[1]; stage 4 reached or exceeded after 36 days vs negative control
  Dormancy-breaking effect according to the definition, apple C2: dormancy-breaking effect
[2]; [5]
  Bud development stage, cherry branches C3: 1
[2]; T2 (16 d)
  Bud development stage, cherry branches C3: 2
[2]; T3 (21 d)
  Bud development stage, cherry branches C3: 5
[2]; T4 (27 d)
  Bud development stage, cherry branches C3: 5
[2]; T5 (36 d)
  Bud development stage, cherry branches C3: 5
[2]; T6 (56 d)
  Bud development stage, cherry branches C3: 5
[2]; stage 4 reached or exceeded after 21 days vs negative control
  Good to very good dormancy-breaking effect, cherry C3: good to very good dormancy-breaking effect
[2]; stage 4 reached or exceeded after 27 days vs negative control
  Dormancy-breaking effect according to the definition, cherry C3: dormancy-breaking effect
[3]
  Effectiveness compared with prior art treatment with cyanamide: as effective as the prior art treatment with cyanamide
[4]
  Effectiveness compared with prior art treatment with cyanamide: at least as effective as the prior art treatment with cyanamide
